From patent US8980933B2, “Combretastatin analogs for use in the treatment of cancer” (Universitat Bayreuth, priority 2010, dated 2015)

Tests used:
[1] = test system: A2780 ovarian carcinoma xenografts; experiment: A2780 ovarian carcinoma xenograft model; type: in vivo, mouse
[2] = test system: MCF-7/Topo breast carcinoma cells; experiment: MTT cell growth inhibition, MCF-7/Topo; type: cell-based, human; settings: MCF-7/Topo (BCRP+)
Experimental: The effects of the compounds 5b, 6b, 8a, and 8e according to the present invention and of the reference compound 25f (Wang et al., J. Med. Chem. 2002, 45, 1697-1711) on cells of the following human tumor cell lines were evaluated: 518A2 melanoma, HL-60 leukemia, HT-29 colon carcinoma, KB-V1/Vbl cervical carcinoma, and MCF-7/Topo breast carcinoma.
The HL-60 cells were obtained from the German Collection of Biological Material (DSMZ), Braunschweig, Germany; the human 518A2 melanoma cells as well as the testicular germ cell tumor cell lines H12.1 and 1411HP were cultured in the department of oncology and hematology, Medical Faculty of the Martin-Luther University, Halle, Germany; the KBV1/Vbl and the MCF-7/Topo cells were obtained from the Institute of Pharmacy of the University Regensburg, Germany; and the colon HT-29 cells from the University Hospital Erlangen, Germany. The HL-60 and the HT-29 cells were grown in RPMI-1640 medium supplemented with 10% fetal calf serum (FCS), 100 IU/mL penicillin G, 100 μg/mL streptomycin sulfate, 0.25 μg/mL amphotericin B and 250 μg/mL gentamycine (all from Gibco, Egenstein, Germany). The 518A2 and the KB-V1/Vbl cells were cultured in Dulbecco's Modified Eagle Medium (D-MEM, Gibco) containing 10% FCS, 100 IU/mL penicillin G, 100 μg/mL streptomycin sulfate, 0.25 μg/mL amphotericin B and 250 μg/mL gentamycine. The MCF-7/Topo cells were grown in E-MEM medium (Sigma) supplemented with 2.2 g/L NaHCO3, 110 mg/L sodium pyruvate and 5% FCS. The cells were maintained in a moisture-saturated atmosphere (5% CO2) at 37° C. in 75-mL culture flasks (Nunc, Wiesbaden, Germany). They were serially passaged following trypsinisation by 0.05% trypsin/0.02% EDTA (PAA laboratories, Clbe, Germany). Mycoplasma contamination was routinely monitored, and only mycoplasma-free cultures were used.
MTT [3-(4,5-dimethylthiazol-2-yl)-2,5-diphenyltetrazolium bromide](ABCR) was used to identify viable cells which reduce it to a violet formazan (Mosmann, J. Immunol. Methods 1983, 65, 55-63). HL-60 leukemia cells (5×10^5/mL), and cells (5×10^4/mL) of 518A2 melanoma, HT-29 colon, KB-V1/Vbl cervix and MCF-7/Topo breast carcinoma were seeded out in 96-well tissue culture plates and cultured for 24 h. Incubation (5% CO2, 95% humidity, 37° C.) of the cells following treatment with the test compounds was continued for 24, 48 or 72 h. Blank and solvent controls were treated identically. […] The microplates were gently shaken in the dark for 30 min and absorbance at 570 nm and 630 nm (background) was measured with an ELISA plate reader. All experiments were carried out in quadruplicate; the percentage of viable cells was calculated as the mean±SD with controls set to 100%.

518A2 cells = experiment: Mitochondrial membrane assay (JC-1), 518A2; type: cell-based, human; settings: 5 μM, red/green fluorescence ratio relative to untreated controls (100%), mean ± SD
Experimental: Values represent means of four independent experiments±standard deviation.
Changes in mitochondrial membrane potential were determined by the Mitochondrial Membrane Detection Kit (Stratagene, La Jolla, Calif., USA) according to the manufacturer's procedure. 72 h following treatment with 5 μM of the test compounds, cell samples were centrifuged at 400 g for 5 min. The pellets were resuspended in 500 μL diluted JC-1 solution, incubated at 37° C. for 15 min (HL-60) and then centrifuged again for 5 min at 400 g. After washing, the pellets were resuspended in 100 μL PBS and transferred into the wells of a black 96-well plate. The red (λex=585 nm, λem=590 nm) and green (λex=510 nm, λem=527 nm) fluorescence intensities were measured and their ratio was calculated.

[3] = test system: KB-V1/Vbl cervical carcinoma cells; experiment: MTT cell growth inhibition, KB-V1/Vbl; type: cell-based, human; settings: Pgp-overexpressing KB-V1 cells
Experimental: The MCF-7/Topo cells were grown in E-MEM medium (Sigma) supplemented with 2.2 g/L NaHCO3, 110 mg/L sodium pyruvate and 5% FCS. The cells were maintained in a moisture-saturated atmosphere (5% CO2) at 37° C. in 75-mL culture flasks (Nunc, Wiesbaden, Germany). They were serially passaged following trypsinisation by 0.05% trypsin/0.02% EDTA (PAA laboratories, Clbe, Germany). Mycoplasma contamination was routinely monitored, and only mycoplasma-free cultures were used.
HL-60 leukemia cells (5×10^5/mL), and cells (5×10^4/mL) of 518A2 melanoma, HT-29 colon, KB-V1/Vbl cervix and MCF-7/Topo breast carcinoma were seeded out in 96-well tissue culture plates and cultured for 24 h. […] Blank and solvent controls were treated identically. MTT in phosphate buffered saline (5 mg/mL) was added to a final concentration of 0.05% (HL-60, 518A2) or 0.1% (HT-29, KB-V1/Vbl, MCF-7/Topo). After 2 h the formazan precipitate was dissolved in 10% sodium dodecylsulfate in DMSO containing 0.6% acetic acid in the case of the HL-60 cells. For the adherent 518A2, KB-V1/Vbl, MCF-7/Topo and HT-29 cells the microplates were swiftly turned to discard the medium before adding the solvent mixture. The microplates were gently shaken in the dark for 30 min and absorbance at 570 nm and 630 nm (background) was measured with an ELISA plate reader. All experiments were carried out in quadruplicate; the percentage of viable cells was calculated as the mean±SD with controls set to 100%.

SMILES	vascular disrupting effect [1]	cytotoxicity / efficacy (comparison) [2]	Intact mitochondria [%] in 518A2 cells after 72 h (518A2 cells) [%]	IC50 concentration [3]
COc1ccc(-c2c(-c3cc(Br)c(OC)c(OC)c3)ncn2C)cc1N [compound 6b, 1-methyl-5-(3-amino-4-methoxyphenyl)-4-(3-bromo-4,5-dimethoxyphenyl)-imidazole]	vascular disrupting activity	noticeably less active but still superior to the known imidazole 25f	80 ± 9	single-digit nanomolar range
COc1ccc(-c2c(-c3cc(Cl)c(OC)c(OC)c3)ncn2C)cc1N [compound 5b, 1-methyl-5-(3-amino-4-methoxyphenyl)-4-(3-chloro-4,5-dimethoxyphenyl)-imidazole]	vascular disrupting activity	noticeably less active but still superior to the known imidazole 25f	80 ± 9	single-digit nanomolar range
